# What was measured:
# Pediococcus acidilactici [1] = settings: Gilbreth and Somkuti (2005); positive control; cited from earlier work
# Pediococcus acidilactici [2] = assay: agar diffusion method, zones of inhibition; type: cell-based; design: key: +++ represents very strong growth inhibition; ++ represents strong growth inhibition; + represents mild growth inhibition; − represents no growth inhibition; settings: 50 μl CFS of S. thermophilus strain 110 grown in TYL, 7 h and 24 h samples identical; target in MRS
# Experimental: (§1) Bacteriocin activity is measured using an agar diffusion method (see, Gilbreth & Somkuti (2005)). Cultures of S. thermophilus strain 110 (NRRL B59671) and S. thermophilus strain LMD-9 are grown at 37° C. to an OD660 between 0.8 and 1.0 in 10 ml tryptone-yeast extract medium (Somkuti & Steinberg 1986) formulated with lactose (TYL) or glucose (TYG), or M17 medium (Becton Dickinson Co., Sparks, Md.) formulated with glucose (M17G) or lactose (M17L). Cells are pelleted by high-speed centrifugation for collection of cell-free supernatants (CFS). CFS (˜50 μl) are loaded into precast wells in an agar medium seeded with the target bacteria (0.5% v/v). Bacterial targets included: S. thermophilus strain ST113 in TYL, P. acidilactici in MRS (Becton Dickinson Co., Sparks, Md.), and L. innocua in BHI (Beckton Dickinson Co., Sparks, Md.). Plates are allowed to equilibrate overnight at 4° C., and then are incubated at 37° C. for 8 hours and are examined for the appearance of zones of inhibition.
# (§2) S. thermophilus strain 110 (NRRL B59671) are grown overnight in tryptone-yeast extract-lactose (TYL) medium. The overnight culture is diluted in fresh TYL medium and grown for 7 or 24 hours. At each time point, a 1 ml sample is collected. […] The agar plates are monitored for growth of the target bacterium (agar medium becomes turbid), and the presence of clear zones around wells. […]
# Listeria innocua = assay: agar diffusion method, zones of inhibition; type: cell-based; design: key: +++ represents very strong growth inhibition; ++ represents strong growth inhibition; + represents mild growth inhibition; − represents no growth inhibition; settings: 50 μl CFS of S. thermophilus strain 110 grown in TYL, 7 h and 24 h samples identical; target in BHI
# Experimental: as §1, §2
# Propionibacterium acnes = assay: agar diffusion method, zones of inhibition; type: cell-based; design: key to Growth Inhibitory Activity: +++ represents very strong growth inhibition; ++ represents strong growth inhibition; + represents mild growth inhibition; − represents no growth inhibition
# Experimental: S. thermophilus strain 110 (NRRL B59671) are grown overnight in tryptone-yeast extract-lactose (TYL) medium. The overnight culture is diluted in fresh TYL medium and grown for 7 or 24 hours. At each time point, a 1 ml sample is collected. Bacterial cells are removed from the 1 ml samples by centrifugation; and the cell free supernatants (CFS) are tested for antimicrobial activity using an agar diffusion method (see Gilbreth and Somkuti (2005) and Example 2 supra). Target agar plates are prepared by inoculating molten microbiological medium with the overnight growth of susceptible bacteria (0.5% v/v; 250 μl of culture into 50 ml of medium). The inoculated molten agar is poured into square dishes and left to harden at room temperature (approximately 10 minutes). Wells are made in the solidified agar plates using a sterile glass Pasteur pipette, and each well is filled with 50 μl of CFS samples. The agar plates are stored overnight at 4° C. to allow for diffusion of the CFS into the agar medium. The agar plates with loaded wells are then incubated at 37° C. to allow for growth of the target bacterium. The agar plates are monitored for growth of the target bacterium (agar medium becomes turbid), and the presence of clear zones around wells. […]
# Pediococcus acidilactici [3] = assay: antimicrobial activity of recombinant BlpU, SDS-PAGE gel overlay method; type: cell-based; settings: expressed in E. coli BL21 pGEX-6P-1/blpU; before or after Factor Xa cleavage of the GST tag; FIG. 6
# Text: The nucleic acid sequence (162 base pairs; SEQ ID NO: 37) corresponding to the mature BlpU peptide (not including the 23 amino acid leader peptide) is amplified from the S. thermophilus strain 110 (NRRL-B59671) chromosome by PCR with the primers: forward: […] (BamHI—recognition site underlined; nucleotides encoding the Factor Xa recognition sequence (isoleucine-glutamic acid-glycine-arginine) are italicized) (SEQ ID NO: 34) and reverse: […] (XhoI—recognition site underlined) (SEQ ID NO: 35). […] The DNA fragment is subsequently cloned into the pGEX 6P-1 plasmid (GE Healthcare Life Sciences, Piscataway, N.J.) at the BamHI and XhoI sites. The resulting plasmid (pGEX 6P-1/blpU) encodes for a fusion protein with the glutathione S transferase (GST) tag on the N-terminus of BlpU, and expression is under control of an isopropyl β-D-1-thiogalactopyranoside (IPTG) inducible promoter. The plasmid is transformed into E. coli strain BL21 for recombinant expression of the fusion protein. […] The eluent from the dialysis bag is recovered and analyzed by SDS-PAGE for the presence of a ˜31 kDa fusion protein. […] The cleaved product is analyzed by SDS-PAGE for the presence of BlpU (silver nitrate staining) and antimicrobial activity against Pediococcus acidilactici (gel overlay method; Gilbreth and Somkuti, 2005).
# [4] = system: Streptococcus dysgalactiae; assay: agar diffusion method, zones of inhibition; type: cell-based; design: key: +++ represents very strong growth inhibition; ++ represents strong growth inhibition; + represents mild growth inhibition; − represents no growth inhibition; settings: 50 μl CFS of S. thermophilus strain 110 grown in TYL, 7 h and 24 h samples identical; target in TYL
# Experimental: (§3) S. thermophilus strain 110 (NRRL B59671) are grown overnight in tryptone-yeast extract-lactose (TYL) medium. The overnight culture is diluted in fresh TYL medium and grown for 7 or 24 hours. At each time point, a 1 ml sample is collected. Bacterial cells are removed from the 1 ml samples by centrifugation; and the cell free supernatants (CFS) are tested for antimicrobial activity using an agar diffusion method (see Gilbreth and Somkuti (2005) and Example 2 supra). Target agar plates are prepared by inoculating molten microbiological medium with the overnight growth of susceptible bacteria (0.5% v/v; 250 μl of culture into 50 ml of medium). The inoculated molten agar is poured into square dishes and left to harden at room temperature (approximately 10 minutes). Wells are made in the solidified agar plates using a sterile glass Pasteur pipette, and each well is filled with 50 μl of CFS samples. The agar plates are stored overnight at 4° C. to allow for diffusion of the CFS into the agar medium. The agar plates with loaded wells are then incubated at 37° C. to allow for growth of the target bacterium. The agar plates are monitored for growth of the target bacterium (agar medium becomes turbid), and the presence of clear zones around wells. […] Furthermore, antimicrobial activity is shown to be associated with a low-molecular weight peptide based on gel electrophoretic analysis (Gilbreth & Somkuti 2005). Agar diffusion assays are repeated a minimum of three times.
# [5] = system: Lactobacillus acidophilus; assay: agar diffusion method, zones of inhibition; type: cell-based; design: key: +++ represents very strong growth inhibition; ++ represents strong growth inhibition; + represents mild growth inhibition; − represents no growth inhibition; settings: 50 μl CFS of S. thermophilus strain 110 grown in TYL, 7 h and 24 h samples identical; target in MRS
# Experimental: as §3
# Streptococcus agalactiae = assay: agar diffusion method, zones of inhibition; type: cell-based; design: key: +++ represents very strong growth inhibition; ++ represents strong growth inhibition; + represents mild growth inhibition; − represents no growth inhibition; settings: 50 μl CFS of S. thermophilus strain 110 grown in TYL, 7 h and 24 h samples identical; target in TYL
# Experimental: as §3
# Streptococcus uberus = assay: agar diffusion method, zones of inhibition; type: cell-based; design: key: +++ represents very strong growth inhibition; ++ represents strong growth inhibition; + represents mild growth inhibition; − represents no growth inhibition; settings: 50 μl CFS of S. thermophilus strain 110 grown in TYL, 7 h and 24 h samples identical; target in TYL
# Experimental: as §3
# Streptococcus mutans = assay: agar diffusion method, zones of inhibition; type: cell-based; design: key to Growth Inhibitory Activity: +++ represents very strong growth inhibition; ++ represents strong growth inhibition; + represents mild growth inhibition; − represents no growth inhibition
# Experimental: as §1, §3
# Streptococcus pyogenes = assay: agar diffusion method, zones of inhibition; type: cell-based; design: key to Growth Inhibitory Activity: +++ represents very strong growth inhibition; ++ represents strong growth inhibition; + represents mild growth inhibition; − represents no growth inhibition
# Experimental: as §1, §3
# [6] = 50 μl CFS of S. thermophilus strain 110 grown in TYL, 7 h and 24 h samples identical, target in BHI
substance,measurement,setting,value
"thermophilin 110: mature bacteriocin produced by S. thermophilus strain 110, amino acids 24-76 of SEQ ID NO: 1 (SEQ ID NO: 36), about 5 kDa (GCSWGGFAKQGVATGVGNGLRLGIKTRTWQGAVAGAAGGAIVGGVGYGATCWW; listed as Streptococcus thermophilus)",zones of inhibition against P. acidilactici in prior studies,Pediococcus acidilactici [1],very strong zones of inhibition
same,Growth Inhibitory Activity,Pediococcus acidilactici [2],+++
same,Growth Inhibitory Activity,Listeria innocua,+
same,Growth Inhibitory Activity,Propionibacterium acnes; [6],++
same,growth inhibitory activity against P. acnes (in words),Propionibacterium acnes; text summary of Table 4,strong growth inhibitory activity
same,antimicrobial activity against P. acidilactici,Pediococcus acidilactici [3],inhibition zone
same,Growth Inhibitory Activity,[4],−
same,Growth Inhibitory Activity,[5],+++
same,Growth Inhibitory Activity,Streptococcus agalactiae,−
same,Growth Inhibitory Activity,Streptococcus uberus,+
same,Growth Inhibitory Activity,"Streptococcus mutans; 50 μl CFS of S. thermophilus strain 110 grown in TYL, 7 h and 24 h samples identical, target in Todd Hewitt",++
same,growth inhibitory activity against S. mutans (in words),Streptococcus mutans; text summary of Table 4,strong growth inhibitory activity
same,Growth Inhibitory Activity,Streptococcus pyogenes; [6],+++
same,growth inhibitory activity against S. pyogenes (in words),Streptococcus pyogenes; text summary of Table 4,very strong growth inhibitory activity

# Reference: patent US20160368953A1, “BACTERIOCIN WITH NOVEL ACTIVITY” (The United States of America, as represented by the …, priority 2015, published 2016)
